Measurements taken from article PMC2751816, “Functional, Non-Clonal IgM^a-Restricted B Cell Receptor Interactions with the HIV-1 Envelope gp41 Membrane Proximal External Region” (PLoS ONE, 2009).

Assays:
[1] = tested on: BALB/c B cells (gp41 MPER tetramer binding); test: Cold inhibition of APC-labeled gp41 MPER tetramer binding by unlabeled tetramers; assay type: cell-based, mouse (BALB/c); settings: unlabeled competitor tetramer pre-incubated; Fig. 4A,B; average of three experiments (4B)
Description: FACS staining of single cell suspensions (≥2×10^6) was conducted using pre-mixed combinations of fluorochrome-labeled Abs and APC-conjugated B cell tetramers at empirically-determined optimal concentrations. All Abs were from BD unless otherwise stated. Primary antibodies used were: PerCP anti-B220, FITC anti-IgD, FITC, PE or PE-Cy7 anti-IgM, PE anti-CD5, FITC anti-CD11b, PE-Cy7 anti-CD19, FITC anti-CD21, PE-Cy7 anti-CD23 (eBiosciences), and PE-Cy7 anti-CD93 (eBiosciences). Other reagents included biotinylated Abs against dump channel markers: Thy1 (Abcam), F4/80 (Abcam), CD11c, Gr-1, TER-119, and NK-1.1, secondary staining SA-Texas Red conjugate; v-amine live/dead violet dye (Molecular Probes), and Fc block (anti-CD16/32).
Staining was conducted at 4°C in several sequential steps in FACS staining buffer (1X PBS with 2% FCS, 0.1% NaN3), washing twice between steps. Cells were first incubated with v-amine live/dead dye for 15 min, then stained with APC-labeled tetramers for 30 min (and in some experiments, cold tetramer was incubated at 10 fold molar excess for 1 h, prior to staining with APC-labeled tetramers). Cells were then stained with Fc block, followed by incubation with combinations of primary Abs, and secondary staining with SA-Texas Red, each for 30 min. Data (≥2.5×10^5 events/sample) were acquired using an LSRII flow cytometer and Cell Quest software (BD Immunocytometry systems). FACS Analysis was performed using FlowJo software (Tree Star). For analysis, cells were gated in the following order: single cells were gated based on fsc height vs. fsc area+ssc height vs. ssc profiles, lymphocytes were gated on fsc and ssc profile, residual dead cells were excluded by negative gating with v-amine live/dead dye, and irrelevant non-B cells were excluded by negative gating with dump markers.

[2] = target: gp41 MPER peptide (nominal 2F5 epitope of the HIV-1 gp41 membrane proximal external region), N-biotinylated (HIV-1); test: SPR; monomeric or F(ab)2 IgM fragments injected over biotinylated peptides anchored to a SA-coated sensor chip; BIAcore 3000, BIAevaluation 4.1

Substance | inhibition of APC-labeled gp41 MPER tetramer binding (in words) [1] | Kd [2] [nM]
DWEYSLWLSN [dsDNA tetramers, double-stranded DNA (dsDNA) mimic tetramer made from the R4A peptide […], reference compound] | minimal competition with gp41 MPER binding | –
monomeric IgM^a fragment of the purified mouse TNP-KLH-specific IgM^a mAb, BD clone G155-228 (antibody) | – | 276
